Laboratory results from PMC3115594 (Current Chemical Genomics, 2010).

Tests used:
[1] = biological target: T1, GR (pBIND-GR, GR-LBD/GAL4 DBD) (Homo sapiens, UniProt P04150); type: cell-based; conditions: for Induction: GR agonist, fold-induction, 384-well
T1 sequence (P04150 500-777): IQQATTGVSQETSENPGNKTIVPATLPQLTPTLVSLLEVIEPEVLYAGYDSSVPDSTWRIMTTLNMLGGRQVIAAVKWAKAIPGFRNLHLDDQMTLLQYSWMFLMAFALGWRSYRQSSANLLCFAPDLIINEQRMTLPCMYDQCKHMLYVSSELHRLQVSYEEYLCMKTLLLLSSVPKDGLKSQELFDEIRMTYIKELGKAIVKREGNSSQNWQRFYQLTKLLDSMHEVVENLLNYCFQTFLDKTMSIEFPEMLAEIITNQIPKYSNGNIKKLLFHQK

[2] = tested on: constitutive Renilla reporter expression in HEK293 cells; assay: Renilla luciferase internal control reporter; type: cell-based; conditions: E2 titration, treated/untreated (Fig. 5)

Induction [1]	EC50 [1] [µM]	SMILES	Renilla reporter induction [2]
450	–	C[C@]12CCC(=O)C=C1CC[C@@H]1[C@@H]2[C@@H](O)C[C@@]2(C)[C@H]1CC[C@]2(O)C(=O)CO [Hydrocortisone, hydrocortisone]	–
760	–	C[C@@H]1C[C@H]2[C@@H]3CCC4=CC(=O)C=C[C@]4(C)[C@@]3(F)[C@@H](O)C[C@]2(C)[C@@]1(O)C(=O)CO [Dexamethasone, dexamethasone]	–
42	21	C[C@]12CCC(=O)C=C1CC[C@@H]1[C@@H]2[C@@H](O)C[C@]2(C=O)[C@@H](C(=O)CO)CC[C@@H]12 [aldosterone]	–
–	–	C[C@]12CC[C@@H]3c4ccc(O)cc4CC[C@H]3[C@@H]1CC[C@@H]2O [17β-estradiol, 17β- estradiol]	around 1.0
